# pIC50: −log10 of the molar value. Activity calls are given as the source filed them.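 How the source made its calls: active means compounds whose fitted half-maximal concentration in the cell-protection dose series is at or below a set limit; inactive means the rest.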
# Tested on: H9c2 cardiomyocytes, 2-deoxyglucose stress, ATP luminescence, 2 h
# Test: H9c2 cell survival under 2-deoxyglucose stress – uHTS hits, dose response (AID 588780)
SMILES,IC50,pIC50
Cc1cccc(OCCn2nc(C(=O)O)c3ccccc3c2=O)c1,> 79 µM (inactive),
COc1cc2nc(C3CCC3)nc(N3CCN(c4ccccn4)CC3)c2cc1OC,> 79 µM (inactive),
NC(=O)c1nsc(C(=O)N(Cc2ccco2)C(C(=O)NCc2ccccc2)c2ccc(O)cc2)c1N (stereo unspecified),,5.00
COc1ccc(/C=N/NC(=O)c2ccn[nH]2)cc1COc1ccc(Cl)cc1,> 79 µM (inactive),
CCOC(=O)c1nc(Nc2ccc(C(C)=O)cc2)c2ccccc2n1,,4.72
CNC(=O)c1ccc(-c2sc3nc(N4CCOCC4)c4c(c3c2N)CCCC4)o1,> 79 µM (inactive),
Cc1ccc2nc(-c3ccccc3)cc(C(=O)NNC(=O)c3csc(N4CCOCC4)n3)c2c1,> 79 µM (inactive),
O=c1[nH]nc(Cc2ccc([N+](=O)[O-])cc2)c2ccccc12,,4.53
CC(C)n1nc(C(=O)OCC(=O)c2c[nH]c3ccccc23)c2ccccc2c1=O,> 79 µM (inactive),
COc1ccccc1OP(=O)(Nc1cccnc1)Oc1ccccc1OC,> 79 µM (inactive),
CCCn1c(=O)c(C(=O)NCCc2ccc(Cl)cc2)c(O)c2ccccc21,,4.96
O=C(CCc1nc2ccccc2c(=O)[nH]1)Nc1ccc(Cl)c(Cl)c1,,4.69
COCCn1nnnc1C(C(C)C)N(Cc1cccnc1)Cc1cc2cc(OC)ccc2[nH]c1=O (stereo unspecified),> 79 µM (inactive),
Cc1nc(SCC(=O)NCc2ccc(F)cc2)c2c(=O)n(C)c(=O)n(C)c2n1,> 79 µM (inactive),
Cc1ccc(C(C(=O)NCc2ccccc2)N(Cc2ccco2)C(=O)c2snc(C(N)=O)c2N)o1 (stereo unspecified),> 79 µM (inactive),
COCCn1nnnc1CN(CCc1ccccc1)Cc1cc2cc(OC)ccc2[nH]c1=O,> 79 µM (inactive),
CC1(C)CC2CC(C)(CN2C(=O)COC(=O)Cn2[nH]c(=O)c3ccccc3c2=O)C1 (stereo unspecified),> 79 µM (inactive),
CCOC(=O)C(C)Oc1ccc(C2NC(=O)NC(C)=C2C(C)=O)cc1Br (stereo unspecified),> 79 µM (inactive),
CC1(C)CC2C1CCC1(O)CC2(C)CCC1N(O)c1ccc(C(=O)NCCO)cn1 (stereo unspecified),,4.55
O=C(CC(C(=O)c1ccccc1)c1ccccc1)c1ccccc1 (stereo unspecified),,4.90
CC(=O)c1cccc(NC(=O)C(C)OC(=O)CCc2nc3ccccc3c(=O)[nH]2)c1 (stereo unspecified),> 79 µM (inactive),
CCCN1Cc2cccc(C(N)=O)c2C1=O,> 79 µM (inactive),
CN(C(=O)CCc1nc2ccccc2c(=O)[nH]1)C1CCS(=O)(=O)C1 (stereo unspecified),> 79 µM (inactive),
O=C(Cn1[nH]c(=O)c2ccccc2c1=O)OCC(=O)N(Cc1ccccc1)Cc1ccccc1,> 79 µM (inactive),

SMILES,IC50,pIC50
CCOc1cc(/C=N\NC(=O)c2ccc(NC(=O)C(C)(C)C)cc2)ccc1OC(=O)c1cccc(C)c1,,4.82
COc1ccc(-c2cc3nc(-c4ccccc4)cc(N4CCN(C(C)=O)CC4)n3n2)cc1,,4.92
O=CNc1cc(-c2ccc(C(=O)NC3CC3)cc2)cn2c(-c3ccc(F)c(Cl)c3)cnc12,> 79 µM (inactive),
CCOC(=O)C1CCN(c2cc3c(cc2NC(=O)c2ccccc2)n(C)c(=O)n3C)CC1,> 79 µM (inactive),
O=C(NCCc1ccccc1Cl)c1ccc2nc3ccccc3c(=O)n2c1,,4.78
CCn1ncc2c1C(=O)NC1c3ccccc3C(=O)N21 (stereo unspecified),> 79 µM (inactive),
COc1ccccc1C(=O)NCC(=O)N/N=C/c1cc(Br)ccc1OC(=O)/C=C\c1ccco1,> 79 µM (inactive),
COc1ccccc1NC(=O)COc1ccc(/C=N/NC(=O)c2cccnc2)cc1,,4.83
C=CCOc1ccc(C=Nc2ccc(OC)cc2)c(O)c1,,4.62
O=C(CNC(=O)c1nc[nH]c1C(=O)NCC(=O)OCc1ccccc1)OCc1ccccc1,39.5 µM (inactive),
CN(C)C(=O)/C=C\c1cn(-c2ccccc2)nc1-c1ccc2c(c1)OCCO2,> 79 µM (inactive),
O=C(COC(=O)c1ccc([N+](=O)[O-])o1)Nc1cccc(S(=O)(=O)N2CCCCC2)c1,> 79 µM (inactive),
CC(=O)Nc1cc(-c2ccc(C(=O)NC3CC3)cc2)cn2c(-c3cccc(C(C)=O)c3)cnc12,> 79 µM (inactive),
CCN1C(=O)/C(=C/c2nc3ccccc3c(=O)[nH]2)c2ccccc21,> 79 µM (inactive),
COc1cc(-c2cnc3c(NC=O)cc(-c4cccnc4)cn23)cc(OC)c1OC,,4.52
O=C(Cn1[nH]c(=O)c2ccccc2c1=O)NC1CCN(Cc2ccccc2)CC1,> 79 µM (inactive),
N#Cc1c(-c2cccs2)cc(-c2cccnc2)nc1N,> 79 µM (inactive),
Oc1c(Br)cc(Br)cc1C=NCc1ccccc1,> 79 µM (inactive),
O=C(CCc1nc2ccccc2c(=O)[nH]1)Nc1ccc(F)cc1,,4.56
Cc1nc2ccccc2c(=O)[nH]1,> 79 µM (inactive),
O=C(NCC(=O)N(Cc1cccs1)C(C(=O)NC1CCCCC1)c1ccco1)c1ccco1 (stereo unspecified),,4.81
CCC(=O)Nc1cccc(-c2nnc(-c3cccc(NC(=O)CC)c3)o2)c1,> 79 µM (inactive),
COc1cc(-c2ccc3oc(-c4ccsc4)cc(=O)c3c2)cc(OC)c1OC,> 79 µM (inactive),
O=C(Nc1cccc(NC(=O)c2ccc([N+](=O)[O-])o2)c1)c1ccco1,> 79 µM (inactive),

SMILES,IC50,pIC50
CCCn1nc(C(=O)OCC(=O)c2c(N)n(C)c(=O)n(C)c2=O)c2ccccc2c1=O,56.6 µM (inactive),
c1cc2[nH]snc2c2nc(C3CC3)nc12,,4.99
O=C(CCc1nc2ccccc2c(=O)[nH]1)OCc1nnc(-c2ccccc2)o1,> 79 µM (inactive),
O=C(CSc1nnc(Cc2cccs2)n1CCc1ccccc1)N1CCCc2ccccc21,> 79 µM (inactive),
Cc1ccc(S(=O)(=O)N2CCN(C(=O)CCc3nc4ccccc4c(=O)[nH]3)CC2)c(C)c1,> 79 µM (inactive),
COc1cccc(-c2nnc3sc(-c4ccccn4)nn23)c1,> 79 µM (inactive),
CCN(CC)CCNC(=O)CCc1n[nH]c(=O)c2ccccc12,> 79 µM (inactive),
Oc1c(Br)cc(Cl)cc1C=Nc1ccccc1Br,31.6 µM (inactive),
Cc1nc(SCC(=O)N2CCN(c3ccccc3)CC2)c2oc3ccccc3c2n1,,4.86
COc1ccc(-c2cc(C(=O)N(C)Cc3ccccc3F)c3ccccc3n2)cc1OC,> 79 µM (inactive),
N#Cc1ccc(OCC(=O)Nc2nc(-c3ccccn3)cs2)cc1,> 79 µM (inactive),
COc1ccccc1NC(=O)CSc1ccc2nnc(-c3ccc(C)cc3)n2n1,> 79 µM (inactive),
CCOc1ccccc1C(=O)N/N=C/c1cccc2cccnc12,> 79 µM (inactive),
O=c1[nH]c2cc(O)ccc2c2ccccc12,> 79 µM (inactive),
Cc1nn(-c2ccccc2)c(C)c1/C=N/NC(=O)c1cc(C(C)(C)C)[nH]n1,32.1 µM (inactive),
Cc1cc(C)cc(OCC(=O)Nc2cccc(-c3nnc(-c4ccco4)o3)c2)c1,> 79 µM (inactive),
COC(=O)c1ccc(C(=O)OC)c(NC(=O)COC(=O)C23CC4CC(CC(O)(C4)C2)C3)c1,,5.01
c1ccc(-c2nn3c(-c4ccco4)nnc3s2)nc1,43.9 µM (inactive),
O=c1cc(CN2CCN(S(=O)(=O)c3cccc(Cl)c3)CC2)c2ccc(O)cc2o1,> 79 µM (inactive),
CC(OC(=O)Cc1n[nH]c(=O)c2ccccc12)C(=O)Nc1ccccc1[N+](=O)[O-] (stereo unspecified),49.1 µM (inactive),
COc1cccc(C(=O)Nc2c(C(N)=O)oc3ccccc23)c1,> 79 µM (inactive),
O=C(Nc1ccc(C(=O)N2CCOCC2)cc1)c1cnn2c(C(F)F)cc(-c3ccccc3)nc12,> 79 µM (inactive),
CC(NC(=O)Cn1nc(C(=O)O)c2ccccc2c1=O)c1ccccc1 (stereo unspecified),> 79 µM (inactive),
CCN(Cc1ccccc1)C(=O)c1cc2c(=O)oc3ccc(C)cc3c2s1,> 79 µM (inactive),

SMILES,IC50,pIC50
COc1cccc2cc(-c3cc(=O)oc4ccc(OCC(C)=O)cc34)oc12,> 79 µM (inactive),
Cc1ccc(C(C)C)c(OCC(=O)NNC(=O)Cn2[nH]c(=O)c3ccccc3c2=O)c1,75.1 µM (inactive),
O=c1cc(-c2ccc([N+](=O)[O-])cc2)c2ccc(O)cc2o1,> 79 µM (inactive),
O=C(CCc1nc2ccccc2c(=O)[nH]1)N1CCN(S(=O)(=O)c2ccccc2Br)CC1,> 79 µM (inactive),
COc1ccccc1NC(=O)c1cc(-c2cc(OC)c(OC)c(OC)c2)nc2ccccc12,> 79 µM (inactive),
COc1ccc(NC(=O)CCCc2nc3ccccc3c(=O)[nH]2)cc1Cl,> 79 µM (inactive),
Cc1cc(C)c(OCC(=O)Nc2nc(-c3ccccn3)cs2)c(C)c1,> 79 µM (inactive),
O=c1c2ccccc2nc(/C=C/c2ccc(O)cc2)n1-c1ccc(O)cc1,> 79 µM (inactive),
COC(=O)c1cccc(Nc2nc(-c3cccnc3)nc3ccccc23)c1,> 79 µM (inactive),
CCOC(=O)[C@H]1[C@H]2COc3ccc(Br)cc3[C@@H]2N2C(=O)c3cc(OC)c(OC)cc3NC(=O)[C@@]12C,40 µM (inactive),
COc1cccc(OC)c1C(=O)Nc1ccc(Br)c(C(=O)c2ccccc2)c1,,4.97
O=C(CCc1nc2ccccc2c(=O)[nH]1)N1CCN(c2ccccc2Cl)CC1,> 79 µM (inactive),
Nc1nonc1-n1nnc(C(=O)N/N=C/c2ccccn2)c1CNc1ccccc1,37.7 µM (inactive),
COC(=O)c1ccccc1NC(=O)c1nc2nc(C)cc(C)n2n1,> 79 µM (inactive),
CCOC(=O)c1c(C)[nH]c(O)c1C=Nc1ccc(Cl)cc1,> 79 µM (inactive),
O=c1[nH]nc(-c2cccs2)c2ccccc12,,5.26
COc1ccccc1CN(C)C(=O)c1cc(-c2cc(OC)c(OC)c(OC)c2)nc2ccccc12,,5.18
Cc1nn(-c2ccccc2)c(N2CCCC2)c1/C=N/NC(=O)c1cc(-c2ccccn2)nc2ccccc12,> 79 µM (inactive),
COc1ccc(OC)c(N(CC(=O)Nc2cccnc2)S(=O)(=O)c2ccc(OC)c(OC)c2)c1,42.7 µM (inactive),
Cc1ccc(S(=O)(=O)N2CCOCC2)cc1C(=O)Nc1nc(-c2ccccn2)cs1,,5.02
O=C1c2ccccc2NC(c2ccc(Cl)cc2Cl)N1O (stereo unspecified),35 µM (inactive),
CCN(CC)S(=O)(=O)c1ccc(N2CCOCC2)c(NC(=O)c2cc(-c3ccccn3)nc3ccccc23)c1,> 79 µM (inactive),
Cc1[nH]c(-c2ccccn2)nc(=S)c1Cl,> 79 µM (inactive),
CCOC(=O)c1c(NC(=O)COC(=O)c2ccc(O)cc2)sc(C(=O)N(C)C)c1C,> 79 µM (inactive),
